The term IC50 denotes the concentration needed to halve the response being measured. A word on the EC50: it is the midpoint of the concentration-response curve. The low end stands for greater potency, the high end for weaker potency.

The values below come from paper PMC5581131, “The novel sphingosine-1-phosphate receptors antagonist AD2900 affects lymphocyte activation and inhibits T-cell entry into the lymph nodes” (Oncotarget, 2017).

Where only a bound is given, the exact number is not on record here.

The test system of one experiment is non-activated PBMCs. As to the kind of experiment: Proliferation of non-activated PBMCs, [3H] thymidine. The experiment is classed as cell-based, human. As to conditions: different concentrations.
The subject of the next experiment is C57BL/6 mice. As to the kind of experiment: T-cell subpopulations (naive, Tcm-like, Tef/em-like) in blood, spleen and lymph nodes, FACS. The experiment is classed as in vivo, mouse. The method, then: We have shown that AD2900 has a unique effect on T-cell distribution in mice. Since T-cell subpopulations such as naïve T cells, central memory T cells (Tcm), and effector/effector memory T cells (Tef/em) have designated roles in the immune response, the influence of AD2900 on the localization of these subpopulations was investigated. The analysis of T-cell subpopulations was performed by FACS using antibodies against commonly accepted surface markers. Some of the molecules that we used as markers are involved in T-cell migration, and their expression can be affected by our treatment. […] Therefore, we refer to the CCR7-CD44+ T-cell population as Tef/em-like cells and to the CCR7+ CD44+ (Figure 6) or CD44+ CD62L+ (Supplementary Figure 4B) T-cell population as Tcm-like cells. The calculated cell number of the different subpopulations in control mice is shown in the left panel of Figure 6.
Figure 6 AD2900 treatment influences the distribution of mice T-cell populations in the blood, spleen, and peripheral lymph nodes C57BL/6 mice were orally administered with AD2900 or FTY720, as shown in Figure 4. Leukocytes from blood, spleen, and pLNs were collected and stained with TCR-β, CD44, and CCR7 fluorescent antibodies and then analyzed by FACS analysis. The percentages of CCR7+ CD44+ Tcm-like cells (left panel), CCR7-CD44+ Tef/em-like cells (central panel), and CCR7 + CD44-naive T cells (right panel) of the total T-cell population (TCR-β+) in blood (A), spleen (B), and pLNs (C) are shown. All the significances are compared to untreated healthy mice. Results summarize three independent experiments. Results of Student’s t-test:*(P < 0.05, two-tailed test), ** (P < 0.01, two-tailed test), *** (P < 0.001, two-tailed test), **** (P < 0.0001, two-tailed test).
Murine lymphocytes: The phenotype of murine lymphocytes was analyzed by flow cytometry using anti-CD3e-FITC, anti-CD19-PB, anti-CCR7-APC, anti-CD44-FITC, anti-CD62L-APC, and anti-TCR-β-PB (Biolegend, CA, USA).
C57BL/6 female mice aged 7–8 weeks were obtained from Harlan Laboratories (Jerusalem, Israel). The animal study was conducted under appropriate conditions and was approved by the Institutional Animal Care and Use Committee of the Hebrew University of Jerusalem in accordance with the national laws and regulations for the protection of animals. AD2900 was dissolved in 10% BSA (MP Biomedicals, CA, USA) in DDW at 1 mg/ml and then further diluted in 200 ml water to get final concentrations at 1.8, 2.7, or 3.6 mg/l. AD2900 and FTY720 were supplied ad libitum to the mice for 2 days or 7 days. At the end of the experiment, blood was collected, and the mice were sacrificed and tissues (lymph nodes and spleen) were harvested.

The target of a further experiment is T1, S1P2 (Homo sapiens, UniProt O95136).
T1 construct: expressed in transfected cells; host or cells: S1P2 CRE-bla CHO cells
T1 sequence (O95136 whole entry): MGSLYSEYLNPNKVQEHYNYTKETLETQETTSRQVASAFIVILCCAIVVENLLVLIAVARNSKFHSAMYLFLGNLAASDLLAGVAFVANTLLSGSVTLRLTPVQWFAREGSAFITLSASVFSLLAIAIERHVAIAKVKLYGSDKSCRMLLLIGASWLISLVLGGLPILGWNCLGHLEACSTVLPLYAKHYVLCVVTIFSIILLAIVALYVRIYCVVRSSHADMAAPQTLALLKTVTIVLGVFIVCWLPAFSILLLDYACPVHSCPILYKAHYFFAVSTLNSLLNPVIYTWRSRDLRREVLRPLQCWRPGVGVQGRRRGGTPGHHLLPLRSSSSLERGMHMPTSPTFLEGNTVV
As to the kind of experiment: S1P2 antagonist test, S1P2 CRE-bla CHO cells. The class given is cell-based. As to conditions: S1P2 CRE-BLA CHO cell line. The method, then:
(§1) Since AD2900 is a sphingolipid analogue with properties that resemble those of S1P, we intended to examine its ability to interact with the S1P receptors. To delineate whether AD2900 can function as an agonistic or antagonistic compound to any of the S1P receptors, we used a high-throughput screening cell-based assay, employing cell lines stably transfected with human S1P receptors 1, 2, 3, 4, or 5 [37]. In this experiment, a compound with an IC50 or EC50 value ≤10 μM for a certain S1P receptor is considered active as an antagonist or an agonist, respectively. The results illustrate that AD2900 acts as an antagonist to all S1P receptors (Table 1, Supplementary Figure 3). […] No agonist activation was evident.
(§2) The S1P1 agonist test and S1P2, S1P3, S1P4, and S1P5 agonist and antagonist tests were conducted as previously described using S1P1 CRE-bla CHO cells, S1P2 CRE-bla CHO cells, S1P3 NFAT-bla CHO cells, Tango™ S1P4 (EDG6)-bla U-2 OS cells, and Tango™ S1P5 ([…])-bla U-2 OS cells. The S1P1 antagonist assay was carried out according to the manufacturer’s instructions using a Tango™ S1P1 (EDG1)-bla U-2 OS Cell-Based Assay (Invitrogen, NY, USA).

The next experiment concerns the target S1P1 (Homo sapiens, UniProt P21453). As to the kind of experiment: S1P1 agonist test, S1P1 CRE-bla CHO cells. The class given is cell-based. To be noted: S1P1 CRE-BLA CHO cell line. On the procedure:
as §1, §2

The mark [1] stands for this setting: oral, as in Figure 4, % of total T cells.

S1P1, sequence (P21453 whole entry): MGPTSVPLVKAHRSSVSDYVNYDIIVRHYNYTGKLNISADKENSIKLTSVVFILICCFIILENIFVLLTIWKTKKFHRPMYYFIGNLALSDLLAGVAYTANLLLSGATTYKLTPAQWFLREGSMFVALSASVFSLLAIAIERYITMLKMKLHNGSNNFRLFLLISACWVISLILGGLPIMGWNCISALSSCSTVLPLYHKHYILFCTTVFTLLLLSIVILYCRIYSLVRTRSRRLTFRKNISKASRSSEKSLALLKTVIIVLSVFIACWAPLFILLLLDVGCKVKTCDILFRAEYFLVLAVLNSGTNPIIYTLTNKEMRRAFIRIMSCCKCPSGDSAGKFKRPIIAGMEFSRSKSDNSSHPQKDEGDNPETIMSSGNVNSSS

As to `CCCCCCCCCCCCCCCCNC(CO)(CO)CO` [AD2900], the “influence on the proliferation of non-activated PBMCs” value with non-activated PBMCs was “no significant differences”. Further, in the experiment on C57BL/6 mice (compared to control), the “Tcm-like cells in the blood and lymph nodes” value was “significantly downregulated”; the “percentage of Tcm-like cells in the spleen” value was “significantly upregulated”. In addition, the “percentage of naïve T-cell population among all T cells in the lymph nodes” value with C57BL/6 mice (compared with the untreated condition) was “remained the same”. The “upregulation of the percentage of Tef/em-like cells in the blood” value with C57BL/6 mice (oral, as in Figure 4) is recorded as 48% ± 1%. For the same compound, in the experiment on C57BL/6 mice (setting [1]), the “naïve T cells (CCR7+CD44-) reduced, mean of up to, of that in the control, in the blood” value is listed as 32% ± 6% and the “naïve T cells (CCR7+CD44-) reduced, of that in the control, in the spleen” value was 38% ± 12%. The compound further displayed a half-maximal inhibitory concentration (IC50) against S1P2 of 3.2 µM. The compound also registered an EC50 on S1P1 above 50 µM.
